Measured values reported in US20200016188A1, “MODIFICATION OF THE PH AND OTHER PHYSICAL PROPERTIES OF NICOTINAMIDE ADENINE DINUCLEOTIDE (OXIDIZED FORM) TO ALLOW FOR ENHANCED STABILITY AND MULTIPLE DELIVERY SYSTEMS” (priority 2018, published 2020).
“Also recorded” adds a separate entry of the source. Where two headings read alike, the source gives them in different places.

Legend:
[1] = pH testing of test substances (pH strips, probe and meter); format: physicochemical
Method: PH testing was done by using both pH testing strips and a probe and meter for each test substance to determine its pH. Each test substance was dissolved in 150 ml distilled water then tested for its pH value. Where the test substance could not be tested because it was not water soluble, an art-recognized pH was used.
PH testing was done by using both ph testing strips and a probe and meter for each test substance to determine its pH. Each test substance was dissolved in 150 ml distilled water then tested for its pH value.

[2] = Two-week stability of compressed lozenge of NAD+ with a test substance, HPLC UV; conditions: for Observation when the composition was made: NAD+ with test substance, HPLC data could not be obtained
Method: Preparations of nicotinamide adenine dinucleotide (oxidized form) were compounded. A compressed lozenge was created including 100 mg nicotinamide adenine dinucleotide (oxidized form) and 100 mg of a test substance. The powders were compressed in a tablet mold and released. Each test tablet was then placed in a white 75cc HDPE container that was sealed and removed from UV light for two weeks at room temperature.
After a two week period, the compositions were tested by performing an HPLC UV.

[3] = cited from earlier work
[4] = not tested, cited from earlier work; for (pH): Table 6, too viscous
[5] = Table 5, test substance dissolved in 150 ml distilled water
[6] = anhydrous NAD+ with test substance, two weeks, HPLC UV versus NAD+ control

Compound: [O]=[Mg] [Magnesium Oxide MgO, Magnesium oxide]
- (pH) Value [1, 5]: 9.1
- Degradation of NAD+ when formulated with the test substance by itself (words) [2, 6]: cause degradation of the NAD+

Compound: O=C([O-])O.[Na+] [Sodium Bicarbonate Na2CO2, Sodium bicarbonate]
- Degradation of NAD+ when formulated with the test substance by itself (words) [2, 6]: showed degradation shortly after creation of the lozenge tablet; also recorded: cause degradation of the NAD+

Compound: NC(=O)c1ccc[n+]([C@@H]2O[C@H](COP(=O)([O-])OP(=O)(O)OC[C@H]3O[C@@H](n4cnc5c(N)ncnc54)[C@H](O)[C@@H]3O)[C@@H](O)[C@H]2O)c1 [NAD+, nicotinamide adenine dinucleotide (oxidized form)]
- Time NAD+ can be stable ([3]; aqueous solutions between pH 2-6, stored at −70° C.): up to 6 months
- Time NAD+ is stable ([3]; fairly neutral aqueous solutions at 0° C.): up to 2 weeks
- Time the stability of NAD+ will last ([3]; neutral or slightly acidic solutions stored at zero degrees Fahrenheit): up to 2 weeks

Compound: [K+].[OH-] [Potassium Hydroxide KOH, Potassium hydroxide]
- Observation when the composition was made [2]: bubbled, liquefied, turned yellow, and created heat
- Degradation of NAD+ when formulated with the test substance by itself (words) [2, 6]: cause degradation of the NAD+

Compound: [Mg+2].[OH-].[OH-] [Magnesium Hydroxide Mg(OH)2, Magnesium hydroxide]
- Degradation of NAD+ when formulated with the test substance by itself (words) ([2]; anhydrous NAD+ with test substance, two weeks, HPLC UV versus NAD+ control, listed as Mg(OH)2): deemed effective
- Degradation of NAD+ when formulated with the test substance by itself (words) ([2]; anhydrous NAD+ with test substance, two weeks, HPLC UV versus NAD+ control, listed as magnesium hydroxide): do not degrade NAD+; also recorded: provided for stable compositions of NAD+

Compound: OCc1ccccc1 [Benzyl alcohol]
- (pH) Value ([1]; Table 6, test substance in 150 ml distilled water): 6.9
- (pH) Value ([1]; summary of Table 6): neutral

Compound: OC[C@@H](O)[C@H](O)[C@@H](O)CO [Xylitol]
- (pH) Value [1, 5]: 6.5

Compound: O=C1O[C@H]([C@@H](O)CO)C([O-])=C1O.[Na+] [Sodium ascorbate]
- Degradation of NAD+ when formulated with the test substance by itself (words) [2, 6]: positive results
- Degradation of NAD+ when formulated with the test substance by itself (words) ([2]; anhydrous NAD+ with test substance, two weeks, HPLC UV versus NAD+ control, listed as sodium ascorbate): do not degrade NAD+

Compound: O=C([O-])[O-].[Mg+2] [Magnesium carbonate MgCO2, Magnesium carbonate]
- Degradation of NAD+ when formulated with the test substance by itself (words) [2, 6]: did not degrade the NAD+; also recorded: little to no degradation; also recorded: do not degrade NAD+

Compound: OC[C@@H](O)[C@@H](O)[C@H](O)[C@@H](O)CO [70% Sorbitol, Sorbitol]
- (pH) Value ([1]; summary of Table 6): neutral
- (pH) [4]: (pH) neutral

Compound: OC[C@@H](O)[C@@H](O)CO [Erythitol, Erythritol]
- (pH) Value [1, 5]: 6.3

Compound: Polysorbate 80
- (pH) Value ([1]; summary of Table 6): neutral
- (pH) [4]: (pH) neutral

Compound: [Cl-].[Na+] [Sodium Chloride NaCl, Sodium chloride]
- Degradation of NAD+ when formulated with the test substance by itself (words) [2, 6]: positive results; also recorded: do not degrade NAD+

Compound: OC[C@@H](O)[C@@H](O)[C@H](O)[C@H](O)CO [Mannitol]
- (pH) Value [1, 5]: 6.7

Compound: OCC(O)CO [Glycerin]
- (pH) Value ([1]; summary of Table 6): neutral
- (pH) [4]: (pH) neutral

Compound: CC(=O)Oc1c(C)c(C)c2c(c1C)CCC(C)(CCC[C@H](C)CCC[C@H](C)CCCC(C)C)O2 (some centres unmarked) [Tocopherol acetates, Tocopherol acetate]
- (pH) Value ([1]; summary of Table 6): neutral
- (pH) [4]: (pH) neutral

Compound: CCCCCCCCCCCCCCCCCC(=O)O [Stearic acid]
- Degradation of NAD+ when formulated with the test substance by itself (words) [2]: cause degradation of the NAD+

Compound: Sodium hydroxide [Sodium Hydroxide NaOH]
- Observation when the composition was made [2]: bubbled, liquefied, turned yellow, and created heat

Compound: Magnesium stearate
- Degradation of NAD+ when formulated with the test substance by itself (words) [2, 6]: cause degradation of the NAD+

Compound: O=P([O-])([O-])O.[Ca+2] [Calcium Phosphate Dibasic, Calcium phosphate dibasic]
- (pH) Value [1, 5]: 8.5
- Degradation of NAD+ when formulated with the test substance by itself (words) [2, 6]: did not degrade the NAD+; also recorded: little to no degradation; also recorded: do not degrade NAD+
- Degradation of NAD+ when formulated with the test substance by itself (words) ([2]; anhydrous NAD+ with test substance, two weeks, HPLC UV versus NAD+ control, listed as CaHPO4): deemed effective

Compound: O=C([O-])O.[K+] [Potassium Bicarbonate K2CO2, Potassium bicarbonate]
- Degradation of NAD+ when formulated with the test substance by itself (words) [2, 6]: cause degradation of the NAD+

Compound: CCCCCCCCCCCCCCCC(=O)OC[C@H](O)[C@H]1OC(=O)C(O)=C1O [Ascorbyl palmitate]
- pH range ([4]; Table 5, not water soluble, art-recognized pH): (pH) range 6.8-7.2
